Reference: PubChem BioAssay (NCI)
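Growth conditions: 96-well plates. Treatment: test compound, 48 hours, 5 concentrations. Analysis: linear interpolation between bracketing concentrations; unreached endpoints set to highest concentration. Definition used: TGI = concentration required for complete inhibition of growth.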

Key:
Experiment in all cases: NCI anticancer screen, dose series, 48 h
SNB-75 CNS = test system: SNB-75 CNS
HCT-116 colon = test system: HCT-116 colon
CCRF-CEM leukemia = test system: CCRF-CEM leukemia
SNB-19 CNS = test system: SNB-19 CNS
RXF 393 renal = test system: RXF 393 renal
M14 melanoma = test system: M14 melanoma
NCI/ADR-RES ovarian = test system: NCI/ADR-RES ovarian
MDA-MB-231 breast = test system: MDA-MB-231 breast
IGROV1 ovarian = test system: IGROV1 ovarian
LOX IMVI melanoma = test system: LOX IMVI melanoma
SF-268 CNS = test system: SF-268 CNS
COLO 205 colon = test system: COLO 205 colon
UACC-62 melanoma = test system: UACC-62 melanoma
TK-10 renal = test system: TK-10 renal
PC-3 prostate = test system: PC-3 prostate
RPMI-8226 leukemia = test system: RPMI-8226 leukemia
SK-OV-3 ovarian = test system: SK-OV-3 ovarian
MDA-N = test system: MDA-N
NCI-H23 lung = test system: NCI-H23 lung
HOP-62 NSCLC = test system: HOP-62 NSCLC
BT-549 breast = test system: BT-549 breast
A498 renal = test system: A498 renal
OVCAR-8 ovarian = test system: OVCAR-8 ovarian
HOP-92 NSCLC = test system: HOP-92 NSCLC
SK-MEL-5 melanoma = test system: SK-MEL-5 melanoma
786-0 renal = test system: 786-0 renal
U251 CNS = test system: U251 CNS
SF-539 CNS = test system: SF-539 CNS
SF-295 CNS = test system: SF-295 CNS
SK-MEL-2 melanoma = test system: SK-MEL-2 melanoma
EKVX NSCLC = test system: EKVX NSCLC
ACHN renal = test system: ACHN renal
SK-MEL-28 melanoma = test system: SK-MEL-28 melanoma
MOLT-4 leukemia = test system: MOLT-4 leukemia
NCI-H522 lung = test system: NCI-H522 lung
T-47D breast = test system: T-47D breast
A549 NSCLC = test system: A549 NSCLC
K-562 leukemia = test system: K-562 leukemia
NCI-H460 lung = test system: NCI-H460 lung
HS 578T breast = test system: HS 578T breast
DU-145 prostate = test system: DU-145 prostate
SW-620 colon = test system: SW-620 colon
SN12C renal = test system: SN12C renal
HCT-15 colon = test system: HCT-15 colon
HT29 colon = test system: HT29 colon
UO-31 renal = test system: UO-31 renal
OVCAR-3 ovarian = test system: OVCAR-3 ovarian
SR leukemia = test system: SR leukemia
KM12 colon = test system: KM12 colon
CAKI-1 renal = test system: CAKI-1 renal
MDA-MB-435 = test system: MDA-MB-435
MALME-3M melanoma = test system: MALME-3M melanoma
MCF7 breast = test system: MCF7 breast
OVCAR-4 ovarian = test system: OVCAR-4 ovarian
OVCAR-5 ovarian = test system: OVCAR-5 ovarian
UACC-257 melanoma = test system: UACC-257 melanoma
NCI-H226 lung = test system: NCI-H226 lung
HL-60(TB) leukemia = test system: HL-60(TB) leukemia

CC(C)(C)c1ccc(O)c(CN(Cc2c(O)ccc3ccccc23)C2CCCCC2)c1
TGI (SNB-75 CNS): 32.3 µM
TGI (HCT-116 colon): 30.9 µM
TGI (CCRF-CEM leukemia): > 100 µM
TGI (SNB-19 CNS): 43.9 µM
TGI (RXF 393 renal): 33.6 µM
TGI (M14 melanoma): 25.7 µM
TGI (NCI/ADR-RES ovarian): 32.4 µM
TGI (MDA-MB-231 breast): 30.6 µM
TGI (IGROV1 ovarian): 32.7 µM
TGI (LOX IMVI melanoma): 23.9 µM
TGI (SF-268 CNS): 30.9 µM
TGI (COLO 205 colon): 29.3 µM
TGI (UACC-62 melanoma): 30.1 µM
TGI (TK-10 renal): 29.2 µM
TGI (PC-3 prostate): 28.5 µM
TGI (RPMI-8226 leukemia): > 100 µM
TGI (SK-OV-3 ovarian): 58.6 µM
TGI (MDA-N): 29.3 µM
TGI (NCI-H23 lung): 35.3 µM
TGI (HOP-62 NSCLC): 36.9 µM
TGI (BT-549 breast): 34.4 µM
TGI (A498 renal): 37.6 µM
TGI (OVCAR-8 ovarian): 31.8 µM
TGI (HOP-92 NSCLC): 30.7 µM
TGI (SK-MEL-5 melanoma): 30.2 µM
TGI (786-0 renal): 29.2 µM
TGI (U251 CNS): 29.4 µM
TGI (SF-539 CNS): 30.8 µM
TGI (SF-295 CNS): 38.1 µM
TGI (SK-MEL-2 melanoma): 31.3 µM
TGI (EKVX NSCLC): 30 µM
TGI (ACHN renal): 33.3 µM
TGI (SK-MEL-28 melanoma): 46 µM
TGI (MOLT-4 leukemia): 54.9 µM
TGI (NCI-H522 lung): 28.9 µM
TGI (T-47D breast): 44.3 µM
TGI (A549 NSCLC): 48.9 µM
TGI (K-562 leukemia): 52.1 µM
TGI (NCI-H460 lung): 30.4 µM
TGI (HS 578T breast): 84.3 µM
TGI (DU-145 prostate): 60.9 µM
TGI (SW-620 colon): 85.2 µM
TGI (SN12C renal): 33.1 µM
TGI (HCT-15 colon): 31 µM
TGI (HT29 colon): 31.6 µM
TGI (UO-31 renal): 29.2 µM
TGI (OVCAR-3 ovarian): 34.3 µM
TGI (SR leukemia): 52.2 µM
TGI (KM12 colon): 39.6 µM
TGI (CAKI-1 renal): 32.2 µM
TGI (MDA-MB-435): 52.6 µM
TGI (MALME-3M melanoma): 31.9 µM
TGI (MCF7 breast): 31.9 µM
TGI (OVCAR-4 ovarian): 58.6 µM
TGI (OVCAR-5 ovarian): 32.4 µM
TGI (UACC-257 melanoma): 29.3 µM

COC(=O)C(Cc1c[nH]c2ccccc12)NP(=O)(O)OCC1OC(n2ccc(N)nc2=O)C(O)C1O (stereo unspecified)
TGI (SNB-75 CNS): > 100 µM
TGI (NCI-H226 lung): > 100 µM
TGI (HCT-116 colon): > 100 µM
TGI (CCRF-CEM leukemia): > 100 µM
TGI (SNB-19 CNS): > 100 µM
TGI (M14 melanoma): > 100 µM
TGI (NCI/ADR-RES ovarian): > 100 µM
TGI (MDA-MB-231 breast): > 100 µM
TGI (IGROV1 ovarian): > 100 µM
TGI (LOX IMVI melanoma): > 100 µM
TGI (SF-268 CNS): > 100 µM
TGI (COLO 205 colon): > 100 µM
TGI (UACC-62 melanoma): > 100 µM
TGI (TK-10 renal): > 100 µM
TGI (PC-3 prostate): > 100 µM
TGI (RPMI-8226 leukemia): > 100 µM
TGI (MDA-N): > 100 µM
TGI (NCI-H23 lung): > 100 µM
TGI (HOP-62 NSCLC): > 100 µM
TGI (BT-549 breast): > 100 µM
TGI (A498 renal): > 100 µM
TGI (OVCAR-8 ovarian): > 100 µM
TGI (HOP-92 NSCLC): > 100 µM
TGI (SK-MEL-5 melanoma): > 100 µM
TGI (786-0 renal): > 100 µM
TGI (U251 CNS): > 100 µM
TGI (SF-539 CNS): > 100 µM
TGI (SF-295 CNS): > 100 µM
TGI (EKVX NSCLC): > 100 µM
TGI (ACHN renal): > 100 µM
TGI (SK-MEL-28 melanoma): > 100 µM
TGI (MOLT-4 leukemia): > 100 µM
TGI (NCI-H522 lung): > 100 µM
TGI (HL-60(TB) leukemia): > 100 µM
TGI (T-47D breast): > 100 µM
TGI (A549 NSCLC): > 100 µM
TGI (K-562 leukemia): > 100 µM
TGI (NCI-H460 lung): > 100 µM
TGI (HS 578T breast): > 100 µM
TGI (DU-145 prostate): > 100 µM
TGI (SW-620 colon): > 100 µM
TGI (SN12C renal): > 100 µM
TGI (HCT-15 colon): > 100 µM
TGI (HT29 colon): > 100 µM
TGI (UO-31 renal): > 100 µM
TGI (OVCAR-3 ovarian): > 100 µM
TGI (SR leukemia): > 100 µM
TGI (KM12 colon): > 100 µM
TGI (CAKI-1 renal): > 100 µM
TGI (MDA-MB-435): > 100 µM
TGI (MALME-3M melanoma): > 100 µM
TGI (MCF7 breast): > 100 µM
TGI (OVCAR-4 ovarian): > 100 µM
TGI (OVCAR-5 ovarian): > 100 µM
TGI (UACC-257 melanoma): > 100 µM
